In patent US7699995B2, “Water treatment method” (priority 2006, dated 2010):

Columns and labels:
[1] = Stability with oxidizing and reducing agents at pH 7 and pH 9 (HPLC); assay type: physicochemical
Method: Oxidizing agents (2 mM) included hydrogen peroxide (H2O2; 68 ppm), t-butyl hydrogen peroxide (t-BHP; 180 ppm), and potassium persulfate (K2O8S2; 540 ppm). Reducing agents (2 mM) included iso-ascorbic acid (IAA; 352 ppm) and sodium bisulfite (NaHSO3; 208 ppm). Biocides were tested at 1 mM concentrations, representing 115 ppm MI and […].
The pH 7.0 buffer contained 0.00426% monopotassium phosphate plus 0.019% magnesium chloride hexahydrate. The pH 9.0 buffer contained 0.0046 M hydrochloric acid plus 0.013 M borax. Stock solutions of the redox agents were prepared and added to aliquots of each buffer to give 2 mM concentrations. The biocides were then added to give 1 mM concentrations. The samples were stored at 25° C. and analyzed for biocide level by HPLC at 0, 2 and 8 days.

[2] = Stability in buffered water at various pH and temperatures (HPLC); assay type: physicochemical
Method: Biocides were added to buffer solutions and stability was tested at 22° and 50° C. using HPLC to measure biocide concentration at 0 time, 21 days, 43 days, and 88-90 days. Biocide stability was determined in the following buffer solutions: pH2, 0.01M HCl; pH6, 0.1M KH2PO4; pH8, 0.025M borate; pH10, 0.025M borate; pH12, 0.05M Na2HPO4. Biocide concentrations tested were 100 ppm MI, 200 ppm BIT, 44 ppm CMI.

[3] = Stability in pH 9 buffer solution at 70° C. (HPLC)
Method: pH 9 buffer containing 0.069 M boric acid, 0.017 M citric acid, 0.066 M sodium phosphate was prepared in distilled water. Biocide was dosed into the pH 9 buffer solution and stored at 70° C. in a heat block. The samples were examined for active ingredient concentration at the time points after 5 hours, and 1, 3, 7, 23, 30, 35 and 56 days. Initial biocide doses were 166 ppm MI, 199 ppm BIT and 150 ppm BNPD.
The samples were evaluated for active ingredient concentration via High Pressure Liquid Chromatography. Samples were taken from the heating blocks and allowed to cool to room temperature for 30 minutes. The samples were then diluted 1:20 in deionized water by adding 9.5 ml of deionized water to 0.5 grams of the samples in a 25 ml glass sample vial. The samples were mixed for 15 seconds and transferred to HPLC sample vials for analysis.

[4] = K-persulfate 2 mM, pH 7, 25° C.
[5] = K-persulfate 2 mM, pH 9, 25° C.
[6] = Na bisulfite 2 mM, pH 7, 25° C.
[7] = Na bisulfite 2 mM, pH 9, 25° C.

SMILES: O=c1[nH]sc2ccccc12 [BIT, 1,2-benzisothiazolin-3-one, reference compound]
- % Remaining after 2 Days ([1]; H2O2 2 mM, pH 7, 25° C.): 39%
- % Remaining after 8 Days ([1]; H2O2 2 mM, pH 7, 25° C.): 15%
- % Remaining after 2 Days ([1]; H2O2 2 mM, pH 9, 25° C.): 8%
- % Remaining after 8 Days ([1]; H2O2 2 mM, pH 9, 25° C.): 0%
- % Remaining after 2 Days ([1]; IAA 2 mM, pH 7, 25° C.): 89%
- % Remaining after 8 Days ([1]; IAA 2 mM, pH 7, 25° C.): 86%
- % Remaining after 2 Days ([1]; IAA 2 mM, pH 9, 25° C.): 77%
- % Remaining after 8 Days ([1]; IAA 2 mM, pH 9, 25° C.): 75%
- % Remaining after 2 Days [1, 4]: 0%
- % Remaining after 8 Days [1, 4]: 0%
- % Remaining after 2 Days [1, 5]: 0%
- % Remaining after 8 Days [1, 5]: 0%
- % Remaining after 2 Days [1, 6]: 38%
- % Remaining after 8 Days [1, 6]: 28%
- % Remaining after 2 Days [1, 7]: 82%
- % Remaining after 8 Days [1, 7]: 77%
- % Remaining after 2 Days ([1]; no redox agent, pH 7, 25° C.): 100%
- % Remaining after 8 Days ([1]; no redox agent, pH 7, 25° C.): 100%
- % Remaining after 2 Days ([1]; no redox agent, pH 9, 25° C.): 100%
- % Remaining after 8 Days ([1]; no redox agent, pH 9, 25° C.): 100%
- % Remaining after 2 Days ([1]; t-BHP 2 mM, pH 7, 25° C.): 43%
- % Remaining after 8 Days ([1]; t-BHP 2 mM, pH 7, 25° C.): 8%
- % Remaining after 2 Days ([1]; t-BHP 2 mM, pH 9, 25° C.): 38%
- % Remaining after 8 Days ([1]; t-BHP 2 mM, pH 9, 25° C.): 6%
- Percent Remaining at: pH 2 ([2]; 22° C., day 0): 100%
- Percent Remaining at: pH 6 ([2]; 22° C., day 0): 100%
- Percent Remaining at: pH 8 ([2]; 22° C., day 0): 100%
- Percent Remaining at: pH 10 ([2]; 22° C., day 0): 100%
- Percent Remaining at: pH 12 ([2]; 22° C., day 0): 100%
- Percent Remaining at: pH 2 ([2]; 22° C., day 21): 97%
- Percent Remaining at: pH 6 ([2]; 22° C., day 21): 100%
- Percent Remaining at: pH 8 ([2]; 22° C., day 21): 98%
- Percent Remaining at: pH 10 ([2]; 22° C., day 21): 100%
- Percent Remaining at: pH 12 ([2]; 22° C., day 21): 69%
- Percent Remaining at: pH 2 ([2]; 22° C., day 43): 83%
- Percent Remaining at: pH 6 ([2]; 22° C., day 43): 86%
- Percent Remaining at: pH 8 ([2]; 22° C., day 43): 77%
- Percent Remaining at: pH 10 ([2]; 22° C., day 43): 85%
- Percent Remaining at: pH 12 ([2]; 22° C., day 43): 55%
- Percent Remaining at: pH 2 ([2]; 22° C., day 88): 95%
- Percent Remaining at: pH 6 ([2]; 22° C., day 88): 100%
- Percent Remaining at: pH 8 ([2]; 22° C., day 88): 84%
- Percent Remaining at: pH 10 ([2]; 22° C., day 88): 96%
- Percent Remaining at: pH 12 ([2]; 22° C., day 88): 63%
- Percent Remaining at: pH 2 ([2]; 50° C., day 0): 100%
- Percent Remaining at: pH 6 ([2]; 50° C., day 0): 100%
- Percent Remaining at: pH 8 ([2]; 50° C., day 0): 100%
- Percent Remaining at: pH 10 ([2]; 50° C., day 0): 100%
- Percent Remaining at: pH 12 ([2]; 50° C., day 0): 100%
- Percent Remaining at: pH 2 ([2]; 50° C., day 21): 95%
- Percent Remaining at: pH 6 ([2]; 50° C., day 21): 100%
- Percent Remaining at: pH 8 ([2]; 50° C., day 21): 94%
- Percent Remaining at: pH 10 ([2]; 50° C., day 21): 100%
- Percent Remaining at: pH 12 ([2]; 50° C., day 21): 68%
- Percent Remaining at: pH 2 ([2]; 50° C., day 43): 80%
- Percent Remaining at: pH 6 ([2]; 50° C., day 43): 88%
- Percent Remaining at: pH 8 ([2]; 50° C., day 43): 73%
- Percent Remaining at: pH 10 ([2]; 50° C., day 43): 81%
- Percent Remaining at: pH 12 ([2]; 50° C., day 43): 55%
- Percent Remaining at: pH 2 ([2]; 50° C., day 90): 93%
- Percent Remaining at: pH 6 ([2]; 50° C., day 90): 100%
- Percent Remaining at: pH 8 ([2]; 50° C., day 90): 89%
- Percent Remaining at: pH 10 ([2]; 50° C., day 90): 95%
- Percent Remaining at: pH 12 ([2]; 50° C., day 90): 68%
- Percent Remaining after: 5 hr ([3]; 5 hr): 98%
- Percent Remaining after: 1 day ([3]; 1 day): 97%
- Percent Remaining after: 3 day ([3]; 3 day): 94%
- Percent Remaining after: 7 day ([3]; 7 day): 92%
- Percent Remaining after: 23 day ([3]; 23 day): 86%
- Percent Remaining after: 30 day ([3]; 30 day): 71%
- Percent Remaining after: 35 day ([3]; 35 day): 63%
- Percent Remaining after: 56 day ([3]; 56 day): 68%
- loss of active ingredient ([3]; day 56): 32%
- Percent Remaining after: 0 ([3]; time 0): 100%
